Where a name gives a salt, the structure may show the parent alone.
What was measured:
[1] = test system: Gluconoacetobacter liquefaciens; experiment: Dilution plate count on potato dextrose agar of inoculated AIRFLEX 400 emulsion after biocide addition; assay type: cell-based
Protocol: (§1) In an effort to determine the efficacy of carbon dioxide measurement as a detection mechanism for microbial growth, AIRFLEX 400 (1600 grams) poly(vinyl alcohol) stabilized (some biocide present) vinyl acetate/ethylene polymeric emulsion was inoculated with Gluconoacetobacter liquefaciens. The resulting concentration of Gluconoacetobacter liquefaciens in the Airflex 400 emulsion was measured via a dilution plate count on potato dextrose agar and found to be 5.4×10^4 cfu/ml. The contaminated emulsion was placed in a 2L plastic Nalgene container. The modified cover, equipped with the carbon dioxide sensor and vent hole, described in Example 1 was tightly screwed on. The headspace carbon dioxide level began rising above background (˜400 ppm) within a matter of minutes. After continually monitoring this sample for 2 days, the headspace carbon dioxide concentration leveled out at about 1600 ppm.
(§2) The sample was then monitored for headspace carbon dioxide concentration as described in Examples 1 and 2. After continually monitoring this sample for 2 days the headspace carbon dioxide concentration leveled out at about 1150 ppm. A sample of the AIRFLEX 400 poly(vinyl alcohol) stabilized vinyl acetate/ethylene polymeric emulsion was removed from the container and the concentration of Gluconoacetobacter liquefaciens was measured on potato dextrose agar using a dilution plate count method.
as §2, with “To the same contaminated sample described in Example 3 was added an additional 375 ppm DGH to further reduce the Gluconoacetobacter liquefaciens concentration. The” for “The”, “for 3” for “for 2”, “about 1000” for “about 1150”
as §2, with “To the same contaminated sample described in Example 4 was added an additional 350 ppm DGH to further reduce the Gluconoacetobacter liquefaciens concentration. The” for “The”, “for 3” for “for 2”, “about 800” for “about 1150”, “400” for “400 poly(vinyl alcohol) stabilized vinyl acetate/ethylene polymeric”

[2] = test system: Gluconoacetobacter liquefaciens; experiment: Headspace carbon dioxide concentration over inoculated AIRFLEX 400 emulsion after biocide addition; assay type: cell-based
Description: Sterile AIRFLEX® 400 (1600 grams) poly(vinyl alcohol) stabilized vinyl acetate/ethylene polymeric emulsion was placed in a 2L plastic Nalgene container. The plastic cover was modified with two ports. The first port was used to mount and insert the carbon dioxide sensor and the second, much smaller diameter port was left open to the atmosphere to permit venting and a constant pressure within the container. A Vaisala GMT222 direct reading carbon dioxide transmitter connected to a data logger and computer was used as the measuring device. The cover was then screwed on tightly and the headspace carbon dioxide concentration measured over the course of 3 days. During this entire monitoring period the headspace carbon dioxide concentration remained steady at approximately 400 ppm.
as §1
To the same contaminated sample described in Example 2 was added 400 ppm of dodecylguanidine hydrochloride (DGH) biocide to reduce the Gluconoacetobacter liquefaciens concentration.
as §2
as §2, with “To the same contaminated sample described in Example 3 was added an additional 375 ppm DGH to further reduce the Gluconoacetobacter liquefaciens concentration. The” for “The”, “for 3” for “for 2”, “about 1000” for “about 1150”
as §2, with “To the same contaminated sample described in Example 4 was added an additional 350 ppm DGH to further reduce the Gluconoacetobacter liquefaciens concentration. The” for “The”, “for 3” for “for 2”, “about 800” for “about 1150”, “400” for “400 poly(vinyl alcohol) stabilized vinyl acetate/ethylene polymeric”

[3] = Example 3, biocide 400 ppm, time 24 hour
[4] = Example 4, biocide 375 ppm (additional), time 96 hour
[5] = Example 5, biocide 350 ppm (additional), time 96 hour

`CCCCCCCCCCCCNC(=N)N` [DGH, dodecylguanidine hydrochloride] was tested, and the “Gluconoacetobacter liquefaciens contamination level” value ([1]; Example 3: 400 ppm DGH added to contaminated AIRFLEX 400 (5.4×10^4 cfu/ml before), after 2 days) was 1.30×10^4 cfu/ml, the Contamination [1, 3] was 1.3 × 10^4 CFU/ml and the “Gluconoacetobacter liquefaciens contamination level” value ([1]; Example 4: additional 375 ppm DGH added to Example 3 sample (400 ppm DGH), after 3 days) was 4.40×10^3 cfu/ml. For the same molecule, the Contamination [1, 4] was 4.4 × 10^3 CFU/ml, the “Gluconoacetobacter liquefaciens contamination level” value ([1]; Example 5: additional 350 ppm DGH added to Example 4 sample (400 + 375 ppm DGH), after 3 days) was 3.20×10^2 cfu/ml and the Contamination [1, 5] was 3.2 × 10^2 CFU/ml. For the same molecule, the “headspace carbon dioxide concentration leveled out” value ([2]; Example 3: 400 ppm DGH added to contaminated AIRFLEX 400 (5.4×10^4 cfu/ml, 1600 ppm CO2 before), monitored 2 days, background ~400 ppm) was “about 1150 ppm”, the CO2 [2, 3] was 1150 ppm and the “headspace carbon dioxide concentration leveled out” value ([2]; Example 4: additional 375 ppm DGH added to Example 3 sample (400 ppm DGH), monitored 3 days) was “about 1000 ppm”. For the same molecule, the CO2 [2, 4] was 1000 ppm, the “headspace carbon dioxide concentration leveled out” value ([2]; Example 5: additional 350 ppm DGH added to Example 4 sample (400 + 375 ppm DGH), monitored 3 days) was “about 800 ppm” and the CO2 [2, 5] was 800 ppm.

— patent US20040067592A1, “Process for controlling microbial contamination of polymeric emulsions using carbon dioxide detection” (priority 2002, published 2004)
